Assay [1] deals with T1, MytA (MytAhis) (Corynebacterium glutamicum, UniProt P0C1D6).
T1 construct: gene csp1
The experiment in a line: trehalose mycoloylation (TDM formation), TLC and MALDI-TOF MS. It is filed as biochemical. The note with it: 1 mM, acts as donor and acceptor, 5 μM MytA, pH 8.0, 37 °C, 3 h.

In assay [2] the target is T1, MytA (MytAhis). Kind of assay: trehalose acylation (trehalose dipalmitate formation), MALDI-TOF MS. It is filed as biochemical. The note with it: 1 mM, acts as donor and acceptor, 5 μM MytA, pH 8.0, 37 °C, 3 h.
Assay [3] has as its target T2, MytC (MytChis) (Corynebacterium glutamicum, UniProt Q8NTG4).
T2 construct: gene Cgl0343; residues 30-363 seen in crystal
Kind of assay: X-ray crystallography, […] Å. It is filed as binding.

For assay [4], the target named is T2, MytC (MytChis). The experiment in a line: PorA mycoloylation, MALDI-TOF MS. It counts as biochemical. To be noted: PorA acceptor; in combination with TDM/TMM mix, pH 8.0, 37 °C, 3 h.

T2 sequence (Q8NTG4 entry or part of it): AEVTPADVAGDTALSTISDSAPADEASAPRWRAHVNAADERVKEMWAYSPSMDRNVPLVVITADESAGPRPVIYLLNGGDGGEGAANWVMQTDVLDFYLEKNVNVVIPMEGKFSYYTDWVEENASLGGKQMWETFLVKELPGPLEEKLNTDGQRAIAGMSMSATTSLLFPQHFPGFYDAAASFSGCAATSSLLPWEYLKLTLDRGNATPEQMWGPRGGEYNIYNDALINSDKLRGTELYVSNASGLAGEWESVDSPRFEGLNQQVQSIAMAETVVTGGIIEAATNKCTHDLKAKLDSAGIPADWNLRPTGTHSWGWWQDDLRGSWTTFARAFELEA
T1 sequence (P0C1D6 44-657): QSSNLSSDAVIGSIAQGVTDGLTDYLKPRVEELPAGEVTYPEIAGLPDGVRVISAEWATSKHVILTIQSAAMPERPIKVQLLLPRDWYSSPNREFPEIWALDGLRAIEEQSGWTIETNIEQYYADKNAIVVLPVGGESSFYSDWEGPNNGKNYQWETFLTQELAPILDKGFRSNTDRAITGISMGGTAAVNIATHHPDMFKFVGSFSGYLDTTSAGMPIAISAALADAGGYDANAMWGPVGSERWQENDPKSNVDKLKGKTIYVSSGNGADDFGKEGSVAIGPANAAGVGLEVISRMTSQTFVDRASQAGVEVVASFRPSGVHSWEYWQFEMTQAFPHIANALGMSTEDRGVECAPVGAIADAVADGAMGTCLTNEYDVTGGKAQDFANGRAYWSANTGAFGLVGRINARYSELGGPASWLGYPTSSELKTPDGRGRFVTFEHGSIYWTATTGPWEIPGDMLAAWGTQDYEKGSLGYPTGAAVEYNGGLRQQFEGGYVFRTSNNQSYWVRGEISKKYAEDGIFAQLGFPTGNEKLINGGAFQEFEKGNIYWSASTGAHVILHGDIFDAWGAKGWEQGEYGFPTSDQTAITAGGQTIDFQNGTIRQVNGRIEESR

Take `CCCCCCCCCCCCCCC[C@@H](O)[C@@H](CCCCCCCCCCCCCC)C(=O)OC[C@H]1O[C@H](O[C@H]2O[C@H](CO)[C@@H](O)[C@H](O)[C@H]2O)[C@H](O)[C@@H](O)[C@@H]1O` [synthetic TMM-C32:0]: the “trehalose mycoloylation (TDM formation), TLC and MALDI-TOF MS” value in assay [1] was “a small amount of TDM is detected on TLC”. Take `CCCCCCCCCCCCCCCC(=O)OC[C@H]1O[C@H](O[C@H]2O[C@H](CO)[C@@H](O)[C@H](O)[C@H]2O)[C@H](O)[C@@H](O)[C@@H]1O` [compound 6, TMP]: the “trehalose acylation (trehalose dipalmitate formation), MALDI-TOF MS” value in assay [2] is recorded as “both compounds are efficient substrates of MytA”. Turning to `OC[C@H]1O[C@H](O[C@H]2O[C@H](CO)[C@@H](O)[C@H](O)[C@H]2O)[C@H](O)[C@@H](O)[C@@H]1O` [trehalose], the “X-ray crystallography, 2.69 Å” value in assay [3] (second site, protein surface near active site groove, contacts E225 and D232 of helix α8, crystal with TMM-C13:0) is given as “A trehalose moiety was identified on the surface of MytC”.

`CCCCC[C@@H](O)[C@@H](CCCCC)C(=O)OC[C@H]1O[C@H](O[C@H]2O[C@H](CO)[C@@H](O)[C@H](O)[C@H]2O)[C@H](O)[C@@H](O)[C@@H]1O` [compound 2, TMM-C13:0]: the “X-ray crystallography, 2.69 Å” value in assay [3] (covalent, mycoloyl ester on catalytic S189, co-crystallised, pH 7.1) is listed as “S189 Oγ atom forms an ester bond with the carbonyl of the analog”. `CCCCCCCCCCCCCCC[C@@H](O)CC(=O)OC[C@H]1O[C@H](O[C@H]2O[C@H](CO)[C@@H](O)[C@H](O)[C@H]2O)[C@H](O)[C@@H](O)[C@@H]1O` [compound 4, analog 4]: the “PorA mycoloylation, MALDI-TOF MS” value in assay [4] was “is perfectly used as a substrate to acylate PorA”.

Values taken from article PMC11927696, “Synthetic mycolates derivatives to decipher protein mycoloylation, a unique post-translational modification in bacteria” (The Journal of Biological Chemistry, 2025).
